Data reported in publication PMC13586173, “Synthetic cannabinoid receptor agonists inhibit the cardiac voltage-gated potassium channel hERG” (Acta Pharmacologica Sinica, 2026).
“And” between values parts separate entries of the source, which are not always exact repeats. Equal entries are not always repeated. “Also recorded” adds a separate entry of the source. Where two headings read alike, the source gives them in different places.

Legend:
human CB1 receptor = biological target: T1, human CB1 receptor (Homo sapiens, UniProt P21554); assay: AequoScreen intracellular calcium release assay, CHO-K1 cells stably expressing CB1; assay type: cell-based
T1 construct: host or cells: CHO-K1 stably expressing CB1, apoaequorin and Gα16

hERG (KV11.1) = hERG (KV11.1) (Homo sapiens, UniProt Q12809); assay: Automated planar patch-clamp (APC, QPatch II 48), voltage-ladder protocol, CHO cells stably expressing human hERG; conditions: for effect on Gmax of hERG (in words): APC concentration-response, 1.11 to 30 µM; for hERG channel Efficacy (max reduction in Gmax) Gmin / hERG channel Efficacy (max reduction in Gmax) Gmin, marked *: 1 = no reduction of Gmax; for hERG channel Efficacy (max reduction in Gmax) Gmin: 0 = complete reduction; for hERG channel Efficacy (max reduction in Gmax) Gmin, marked *: * Greatest efficacy achieved with a concentration between 10 and 30 µM (no fit)
From the text: To assess the effect of a large set of SCRAs on hERG (see SI Table I and SI Fig. S1 for a list of the 36 included SCRAs and corresponding structures), we used the automated planar patch-clamp (APC) technique on mammalian Chinese hamster ovary (CHO) cells stably expressing human hERG. […] We employed a voltage-ladder protocol to obtain information on SCRA effects on the channel’s voltage dependence of activation (V50) and maximal conductance (Gmax) (both determined from Boltzmann fits of the instantaneous tail currents; see Methods for details).
Stably expressing cell lines “CHO-hERG DUO” (here referred to as hERG; gene: KCNH2) and “CHO-KVLQT1/mink” (here referred to as KV7.1/KCNE1; gene: KCNQ1/KCNE1), (B’SYS GmBH, Witterswil, Switzerland) were used to study whole-cell K^+ currents on a QPatch II 48 APC system (Sophion Bioscience A/S, Ballerup, Denmark). Cell culture and passaging were performed in accordance with standard operating procedures. Cells were harvested in serum-free medium with Detachin^TM (Genlantis, CA, USA) immediately prior to experiments. For MPC on transient cell lines, CHO-K1 CCL-61 cells (ATCC, Manassas, VA, USA) were cultured in Ham’s F-12 medium supplemented with 10% fetal bovine serum (FBS) and 100 U/mL penicillin–100 µg/mL streptomycin (Gibco, Thermo Fisher Scientific, Waltham, MA, USA). Transfection was carried out using JetOPTIMUS® reagent (Polyplus, Strasbourg, France) according to the manufacturer’s protocol. Briefly, 80,000 cells were seeded per well in a 12-well plate and transfected with 300 ng of pcDNA3-GFP plasmid, 700 ng of pcDNA3-hERG plasmid with either the wild-type or mutant channels (S624A, S649A, or Y652A), and […] of JetOPTIMUS. After 8 h, cells were detached and reseeded at a density of 30,000 cells per well onto several poly-D-lysine-coated glass coverslips placed in a 12-well plate. For the CB1 receptor activity assay, the AequoScreen® recombinant Chinese hamster ovary (CHO) K1 cell line, stably expressing the human CB1 receptor (ES-110-A), was used (Revvity, Sollentuna, Sweden).
Automated patch-clamp recordings were performed at 22 °C. Freshly harvested cell suspensions (2–3 million cells/mL) were prepared for experiments by the QPatch II 48 automated cell preparation unit. Cells were centrifuged for 150 s at 150 × g and washed twice with the extracellular recording solution. Cells were handled by the integrated pipetting robot and added to the 48 experiment sites on the planar patch-clamp consumable QPlate. Each experiment site contained an individual pair of recording electrodes and a silicon/glass biochip embedded in the flow channels. Single-cell patch recordings (n = 1 is defined as one single-cell patch) and population patch recordings (up to 10 cells per well, n = 1 is defined as one population patch) were performed for hERG and for KV7.1/KCNE1, respectively. Cells were applied, positioned and sealed to the patch holes by a mild suction protocol; whole-cell access was then achieved by a stronger suction pulse.
The intracellular solution contained (in mM): 100 KCl, 4.3 CaCl2, 1.4 MgCl2, 25/10 KOH/EGTA, 24 KF, 10 HEPES, and 4 Mg-ATP (hERG) or 4 Na-ATP (KV7.1/KCNE1). […] The compounds were pre-diluted in DMSO, and the final concentration of DMSO (0.3%) was equal in all recording solutions to control for vehicle effects. The compounds made no contact with plastics following dilution in extracellular solution.
An overview of experimental conditions is provided in SI Table VII, Square voltage pulses in a voltage ladder protocol were used to study current/voltage (I(V)) relationships. Each voltage protocol was first run three times in the presence of vehicle (extracellular solution supplemented with 0.3% DMSO), the 3rd serving as the baseline. Voltage protocols were repeated in the presence of 4 cumulatively rising concentrations of test compound, followed by application of vehicle for recovery.

KV7.1/KCNE1 = KV7.1/KCNE1 (Homo sapiens, UniProt P51787); assay: Automated patch-clamp (APC, population patch), CHO cells stably expressing human KV7.1/KCNE1; assay type: cell-based; conditions: for KV7.1/KCNE1 channel Efficacy (max reduction in Gmax) Gmin, marked *: * Greatest efficacy achieved with a concentration between 10 and 30 µM (no fit); for KV7.1/KCNE1 channel Efficacy (max reduction in Gmax) Gmin: 1 = no reduction of Gmax, 0 = complete reduction
Protocol: Both hERG and KV7.1/KCNE1 contribute to cardiomyocyte repolarization (Fig. 1g). Inhibition of KV7.1/KCNE1 alone can be proarrhythmic. Moreover, under conditions with impaired hERG function, upregulation of KV7.1/KCNE1 has been proposed to partially compensate for the loss of hERG [38, 39]. […] To assess if SCRAs also affect KV7.1/KCNE1, we used mammalian CHO cells stably expressing human KV7.1/KCNE1. […] At 10 µM, 7 of the SCRAs caused a significant positive shift in V50 (Fig. 5e), with the largest shift induced by MDMB-[…] (ΔV50 = +10.3 ± 1.6 mV).
Automated patch-clamp recordings were performed at 22 °C.
For the KV7.1/KCNE1 voltage ladder protocol (SI Table VII) the solutions were present for 60 s before recording started. KV7.1/KCNE1 cells were kept at a holding voltage of −90 mV, with brief hyperpolarizing steps to −100 mV for 540 ms (to calculate ohmic leakage). […] The time between compound application and the first voltage protocol was 60 s. Time between sweeps was 15 s. The voltage ladder protocol was executed every 220 s.
For Gmax (rel.), N was set to –1. For ΔV50, N was set to 1.

[1] = CB1 receptor Potency EC50, normalized to median EC50 of JWH-018, n ≥ 3 (JWH-030 n = 2)
[2] = normalized to maximum of JWH-018, n ≥ 3 (JWH-030 n = 2)
[3] = normalized to median EC50 of JWH-018, n ≥ 3 (JWH-030 n = 2), read-out: CB1 receptor Potency EC50
[4] = read-out: hERG channel Potency IC50 (Gmax reduction), APC, 22 °C, best fit

T1 sequence (P21554 whole entry): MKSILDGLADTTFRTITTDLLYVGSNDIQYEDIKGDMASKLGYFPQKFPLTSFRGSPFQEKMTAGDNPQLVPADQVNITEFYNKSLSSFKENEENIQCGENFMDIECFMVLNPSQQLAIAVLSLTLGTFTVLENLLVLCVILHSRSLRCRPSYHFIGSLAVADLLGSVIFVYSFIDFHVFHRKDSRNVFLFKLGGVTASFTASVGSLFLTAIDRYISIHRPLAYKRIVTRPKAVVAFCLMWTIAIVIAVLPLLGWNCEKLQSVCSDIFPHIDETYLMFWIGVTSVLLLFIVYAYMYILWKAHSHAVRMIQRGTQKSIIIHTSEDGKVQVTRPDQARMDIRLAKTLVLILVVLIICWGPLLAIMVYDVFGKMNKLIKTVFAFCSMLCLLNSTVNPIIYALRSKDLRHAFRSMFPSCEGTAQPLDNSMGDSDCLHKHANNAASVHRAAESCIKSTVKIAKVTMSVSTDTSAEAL
Chain of hERG (KV11.1) (Q12809 whole entry): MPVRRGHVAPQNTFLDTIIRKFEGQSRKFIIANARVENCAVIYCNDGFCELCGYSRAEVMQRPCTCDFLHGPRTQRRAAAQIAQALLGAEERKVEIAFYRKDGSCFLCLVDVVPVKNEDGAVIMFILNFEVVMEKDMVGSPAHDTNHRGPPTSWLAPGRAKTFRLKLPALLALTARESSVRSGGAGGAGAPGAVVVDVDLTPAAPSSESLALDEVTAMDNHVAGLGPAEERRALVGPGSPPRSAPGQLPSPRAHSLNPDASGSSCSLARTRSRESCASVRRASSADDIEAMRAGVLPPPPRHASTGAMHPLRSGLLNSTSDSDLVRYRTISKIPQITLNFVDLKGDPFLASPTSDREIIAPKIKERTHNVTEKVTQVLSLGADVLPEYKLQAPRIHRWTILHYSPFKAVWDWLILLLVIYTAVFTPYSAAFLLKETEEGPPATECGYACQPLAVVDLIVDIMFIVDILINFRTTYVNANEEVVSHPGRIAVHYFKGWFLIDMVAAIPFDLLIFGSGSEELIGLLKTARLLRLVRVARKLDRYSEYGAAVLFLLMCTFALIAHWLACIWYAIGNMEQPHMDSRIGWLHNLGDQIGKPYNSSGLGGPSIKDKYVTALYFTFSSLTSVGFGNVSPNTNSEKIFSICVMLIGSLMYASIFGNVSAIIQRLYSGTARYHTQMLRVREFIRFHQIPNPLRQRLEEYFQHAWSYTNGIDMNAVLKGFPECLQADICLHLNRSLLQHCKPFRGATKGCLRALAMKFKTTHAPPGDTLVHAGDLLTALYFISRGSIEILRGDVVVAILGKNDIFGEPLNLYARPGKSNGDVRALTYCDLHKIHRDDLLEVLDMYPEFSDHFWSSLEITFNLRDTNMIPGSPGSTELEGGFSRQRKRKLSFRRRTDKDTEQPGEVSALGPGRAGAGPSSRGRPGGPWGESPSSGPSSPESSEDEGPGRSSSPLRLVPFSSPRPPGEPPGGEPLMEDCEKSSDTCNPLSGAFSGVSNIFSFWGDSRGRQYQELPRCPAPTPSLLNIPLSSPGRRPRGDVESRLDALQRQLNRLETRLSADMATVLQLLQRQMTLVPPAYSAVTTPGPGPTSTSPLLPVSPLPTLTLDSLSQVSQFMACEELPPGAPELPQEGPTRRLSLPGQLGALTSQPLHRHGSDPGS
Chain of KV7.1/KCNE1 (P51787 whole entry): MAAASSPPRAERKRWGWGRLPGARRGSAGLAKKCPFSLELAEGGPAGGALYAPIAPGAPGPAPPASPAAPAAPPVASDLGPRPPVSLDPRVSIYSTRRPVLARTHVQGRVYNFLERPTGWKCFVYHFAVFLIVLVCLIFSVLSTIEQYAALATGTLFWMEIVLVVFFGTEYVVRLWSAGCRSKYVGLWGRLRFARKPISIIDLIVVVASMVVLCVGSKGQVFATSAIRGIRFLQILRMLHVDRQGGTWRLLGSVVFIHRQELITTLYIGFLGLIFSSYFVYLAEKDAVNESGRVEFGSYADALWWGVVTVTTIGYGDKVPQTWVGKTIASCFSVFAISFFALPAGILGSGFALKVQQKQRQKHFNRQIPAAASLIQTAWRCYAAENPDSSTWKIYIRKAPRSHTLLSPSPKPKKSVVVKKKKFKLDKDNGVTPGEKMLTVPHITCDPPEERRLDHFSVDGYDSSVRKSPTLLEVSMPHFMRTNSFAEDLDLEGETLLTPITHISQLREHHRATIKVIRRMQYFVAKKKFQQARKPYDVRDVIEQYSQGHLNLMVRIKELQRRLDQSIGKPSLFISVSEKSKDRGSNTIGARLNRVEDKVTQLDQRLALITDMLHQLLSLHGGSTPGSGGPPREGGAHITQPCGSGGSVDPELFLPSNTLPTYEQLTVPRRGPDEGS

Row | Structure (SMILES) | EC50 (human CB1 receptor; [1]) | CB1 receptor Efficacy Emax (human CB1 receptor; [2]) [% JWH-018] | IC50 (hERG (KV11.1)) [µM] | effect on Gmax of hERG (in words) (hERG (KV11.1)) | hERG channel Efficacy (max reduction in Gmax) Gmin (hERG (KV11.1); best fit, APC, 22 °C) | KV7.1/KCNE1 channel Efficacy (max reduction in Gmax) Gmin, marked * (KV7.1/KCNE1) | EC50 (human CB1 receptor; [3]) [nM] | IC50 (hERG (KV11.1); [4]) [µM] | also measured
1 | CC1(C)C(C(=O)c2cn(CCCCCF)c3ccccc23)C1(C)C [XLR-11] | 260 nM | 105 | 20.4 | concentration-dependent inhibitory effects on Gmax | 0.54 | 0.87 | – | – | –
2 | COC(=O)[C@@H](NC(=O)c1cn(CCCCF)c2ccccc12)C(C)(C)C [4F-MDMB-BUTICA] | – | 115 | – | – | 0.35 | 0.87 | 16.7 | 26.2 | –
3 | CC(C)(NC(=O)c1nn(CCCCCF)c2ccccc12)c1ccccc1 [5F-Cumyl-PINACA] | 2.23 nM and 2.2 nM | 112 | 15.5 | – | 0.00 | – | – | – | IC50 (KV7.1/KCNE1): 43.5 µM; effect on KV7.1/KCNE1 (in words) (KV7.1/KCNE1; APC): well-defined concentration–response relationships for both effects; KV7.1/KCNE1 channel Efficacy (max reduction in Gmax) Gmin (KV7.1/KCNE1; best fit): 0.13
4 | CCCCCN1C(=O)/C(=N\NC(=O)c2ccccc2)c2ccccc21 [BZO-POXIZID] | 349 nM | 108 | – | non-inhibitor | – | 0.83 | – | – | hERG channel Efficacy (max reduction in Gmax) Gmin, marked * (hERG (KV11.1)): 0.79
5 | CC(C)(C)[C@H](NC(=O)c1nn(CC2CCCCC2)c2ccccc12)C(N)=O | – | – | – | – | 0.13 | 0.93 | – | 11.3 | CB1 receptor Efficacy Emax (human CB1 receptor): 107 % JWH-018; EC50 (human CB1 receptor; read-out: CB1 receptor Potency EC50): 3.87 nM
6 | O=C(N/N=C1\C(=O)N(CCCCCF)c2ccccc21)c1ccccc1 [5F-BZO-POXIZID] | 193 nM | 113 | 0.9 | concentration-dependent inhibitory effects on Gmax; also recorded: prominent inhibitory Gmax effects | 0.29 | 0.83 | – | – | Gmax effect on hERG versus KV7.1/KCNE1 (in words) (KV7.1/KCNE1; 10 µM, both channels by APC): effects only on hERG
7 | N#CCCCCn1nc(C(=O)NCc2ccccc2)c2ccccc21 [Benzyl-4CN-BUTINACA] | – | 109 | – | – | 0.00 | 0.73 | 408 | 17.3 | –
8 | CCCCCn1cc(C(=O)c2ccc(C)c3ccccc23)c2ccccc21 [JWH-122] | – | 105 | – | – | 0.73 | 0.87 | 8.29 | 9.4 | –
9 | CCCCCn1nc(C(=O)NC23CC4CC(CC(C4)C2)C3)c2ccccc21 [APINACA] | – | 108 | – | non-inhibitor | – | 0.88 | 30.4 | – | hERG channel Efficacy (max reduction in Gmax) Gmin, marked * (hERG (KV11.1)): 0.90
10 | CCCCCn1cc(C(=O)c2cccc3ccccc23)c2ccccc21 [JWH-018] | 35 nM | 100 | 17.3 | – | 0.57 | 1.01 | – | – | EC50 (human CB1 receptor; median CB1 EC50 value, median from 139 independent experiments run over many years): 35 nM; EC50 (human CB1 receptor; variability of CB1 EC50 over time, range over 139 independent experiments): 13.7 to 51.9 nM
11 | CCCCCn1cc(C(=O)c2ccc(CC)c3ccccc23)c2ccccc21 [JWH-210] | – | 110 | – | – | – | – | 10.1 | – | hERG channel Efficacy (max reduction in Gmax) Gmin, marked * (hERG (KV11.1)): 0.89; KV7.1/KCNE1 channel Efficacy (max reduction in Gmax) Gmin (KV7.1/KCNE1; best fit): 0
12 | O=C(c1cccc2ccccc12)c1nn(CCCCCF)c2ccccc12 [THJ-2201] | – | 92.8 | – | – | 0.73 | – | 45.6 | 2.04 | effect on KV7.1/KCNE1 (in words) (KV7.1/KCNE1; APC): well-defined concentration–response relationships for both effects; IC50 (KV7.1/KCNE1; APC, best fit, read-out: KV7.1/KCNE1 channel Potency IC50 (Gmax reduction)): 4.7 µM; KV7.1/KCNE1 channel Efficacy (max reduction in Gmax) Gmin (KV7.1/KCNE1; best fit): 0.59
13 | CC(C)(C)[C@H](NC(=O)c1n[nH]c2ccc(Br)cc12)C(N)=O [ADB-5'Br-INACA] | – | 111 | – | no or limited effects | 0.70 | 1.04 | 2290 | 24.5 | –
14 | C=CCCCN1C(=O)/C(=N\NC(=O)c2ccccc2)c2ccccc21 [BZO-4en-POXIZID] | 1700 nM | 112 | 3.9 | concentration-dependent inhibitory effects on Gmax | 0.64 | 0.79 | – | – | –
